Assay results taken from the NIST ThermoML archive (doi:10.1021/je900048r).

Experiment: xn = mol fraction of the nth substance listed
Settings: Liquid, Other PVT measurement

CCCCn1cc[n+](C)c1.F[B-](F)(F)F [1-butyl-3-methylimidazolium tetrafluoroborate] + CCO
mass density [kg/m3]
Settings | x1 = 0.2 | x1 = 0.3 | x1 = 0.3999 | x1 = 0.4998 | x1 = 0.6 | x1 = 0.6996 | x1 = 0.8001 | x1 = 0.8998 | x1 = 1
313.15 K, 200 kPa | 965 | 1022 | 1071 | 1098 | 1121 | 1142 | 1158 | 1173 | 1185
313.15 K, 600 kPa | 966 | 1023 | 1072 | 1098 | 1122 | 1142 | 1158 | 1174 | 1186
313.15 K, 1000 kPa | 966 | 1023 | 1072 | 1098 | 1122 | 1143 | 1159 | 1174 | 1186
313.15 K, 1400 kPa | 966 | 1024 | 1072 | 1099 | 1123 | 1144 | 1159 | 1174 | 1186
313.15 K, 1800 kPa | 967 | 1024 | 1073 | 1099 | 1123 | 1144 | 1160 | 1174 | 1187
313.15 K, 2000 kPa | 967 | 1024 | 1073 | 1102 | 1123 | 1144 | 1160 | 1175 | 1187
353.15 K, 200 kPa | 935 | 993 | 1042 | 1070 | 1094 | 1116 | 1131 | 1147 | 1159
353.15 K, 600 kPa | 935 | 993 | 1042 | 1071 | 1094 | 1116 | 1132 | 1147 | 1160
353.15 K, 1000 kPa | 935 | 993 | 1043 | 1071 | 1095 | 1116 | 1132 | 1147 | 1160
353.15 K, 1400 kPa | 936 | 994 | 1043 | 1071 | 1095 | 1116 | 1133 | 1147 | 1160
353.15 K, 1800 kPa | 936 | 994 | 1043 | 1071 | 1095 | 1116 | 1133 | 1148 | 1161
353.15 K, 2000 kPa | 937 | 994 | 1043 | 1072 | 1096 | 1117 | 1133 | 1148 | 1161
393.15 K, 600 kPa | 904 | 964 | 1014 | 1042 | 1067 | 1090 | 1106 | 1122 | 1135
393.15 K, 1000 kPa | 904 | 965 | 1014 | 1043 | 1068 | 1090 | 1106 | 1122 | 1135
393.15 K, 1400 kPa | 905 | 965 | 1015 | 1043 | 1068 | 1090 | 1107 | 1122 | 1135
393.15 K, 1800 kPa | 905 | 965 | 1015 | 1044 | 1069 | 1091 | 1107 | 1123 | 1136
393.15 K, 2000 kPa | 905 | 966 | 1015 | 1044 | 1069 | 1091 | 1108 | 1123 | 1136
433.15 K, 1400 kPa | 871 | 935 | 987 | 1016 | 1041 | 1065 | 1081 | 1097 | 1112
433.15 K, 1800 kPa | 872 | 935 | 987 | 1017 | 1042 | 1066 | 1082 | 1097 | 1113
433.15 K, 2000 kPa | 872 | 935 | 987 | 1017 | 1042 | 1066 | 1082 | 1098 | 1113
